From patent US20130112197A1, “OPERATING METHOD FOR AN AEROSOL DELIVERY DEVICE AND AEROSOL DELIVERY DEVICE” (PARI Pharma GmbH, priority 2010, published 2013)

Experiment: clinical trial: nasal and paranasal aerosol deposition by gamma camera imaging
Type: in vivo, human
Source text: The method of the clinical trial was: Sinus air ventilation, nasal and paranasal aerosol deposition as well as nasal clearance of aerosols delivered by different pulsating airflows, such as a combined mode in comparison to intermittent mode. This was studied in 12 healthy volunteers using gamma camera imaging with 81 mKr gas and 99 mTc-DTPA aerosol. Masking techniques were used to visualize and quantify nasal and sinus aerosol deposition and retention.

O=C([O-])CN(CCN(CC(=O)[O-])CC(=O)[O-])CCN(CC(=O)[O-])CC(=O)[O-].[99Tc+4] [99 mTc-DTPA]
total sinus deposition in % of the deposited activity (12 healthy volunteers, maxillary and sphenoid sinuses, pulsating airflows): up to 24%
total sinus deposition in % of the deposited activity (combined mode, proband 1, post FESS volunteer): 14%
total sinus deposition in % of the deposited activity (combined mode, proband 2, normal volunteer): 6%
total sinus deposition in % of the deposited activity (intermittent mode, proband 1, post FESS volunteer): 24%
total sinus deposition in % of the deposited activity (intermittent mode, proband 2, normal volunteer): 0%
